What is called IC50 is the concentration at which inhibition is half-maximal.

The assay concerns the target T1, Coenzyme A biosynthesis bifunctional protein CoaBC (Mycobacterium tuberculosis (strain ATCC 25618 / H37Rv), UniProt P9WNZ1).
T1 sequence (P9WNZ1 whole entry): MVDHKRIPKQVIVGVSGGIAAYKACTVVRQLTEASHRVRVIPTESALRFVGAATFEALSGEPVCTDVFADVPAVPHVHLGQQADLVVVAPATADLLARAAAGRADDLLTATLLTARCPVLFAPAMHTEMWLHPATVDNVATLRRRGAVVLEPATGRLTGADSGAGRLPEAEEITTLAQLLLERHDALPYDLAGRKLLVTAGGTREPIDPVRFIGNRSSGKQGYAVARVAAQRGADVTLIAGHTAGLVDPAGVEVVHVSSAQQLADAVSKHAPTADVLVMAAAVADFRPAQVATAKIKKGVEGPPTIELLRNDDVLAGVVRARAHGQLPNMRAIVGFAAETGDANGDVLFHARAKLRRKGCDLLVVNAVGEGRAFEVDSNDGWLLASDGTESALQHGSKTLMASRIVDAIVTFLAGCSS
Nature of the assay: Biomol Green assay for MtCoaBC inhibitor, OD650 read. It is filed as functional.
`NS(=O)(=O)c1cccnc1Nc1c(Cl)cccc1Cl` gave an IC50 of over 30.2 µM.
`COc1cc(CNC2CCc3nc(C)nn3C2)cc2c1OCO2` (centres undefined) showed an IC50 of over 30.2 µM.
`CC1c2ncc(Cn3cncn3)n2CCN1C(=O)c1ccsc1` (centres undefined) had an IC50 of over 30.2 µM.
The result for `COCCC(Cc1cccc(Br)c1)C(=O)O` (centres undefined) reads over 50.1 µM; that for `OC(CN1CCC(c2ccn[nH]2)CC1)c1ccc(F)cc1F` (centres undefined), over 30.2 µM; that for `Cc1nnc(N2C[C@@H](OCC3CCCC3)[C@H]3OCCC[C@H]32)s1`, over 30.2 µM.
The result for `CN(C)CCO[C@@H]1CC[C@H]2[C@H]1OCCN2C(=O)c1ccncc1` reads over 30.2 µM; that for `CN1CCc2nnc(C3CCCN3S(=O)(=O)c3ccc(F)cc3)n2CC1` (centres undefined), over 30.2 µM.
The result for `O=C(O)c1cc(-c2ccoc2)cc(S(=O)(=O)N2CCSCC2)c1` reads over 30.2 µM; that for `CCC(NC(=O)c1cc(CC(C)C)nn1C)c1cccc(C)n1` (centres undefined), over 30.2 µM.
Turning to `COc1ccc(Cl)cc1C(=O)NCCNc1cnccn1`, the IC50 is over 30.2 µM.
Molecule `CNC(=O)CCc1cccc(C2CCCN(c3cc(C)ncn3)C2)n1` (centres undefined) had an IC50 of over 30.2 µM.
The result for `CN(Cc1cccnc1)CC1CC12CCN(Cc1nccs1)CC2` (centres undefined) reads over 50.1 µM; that for `CC(=O)Nc1ccc(Oc2cccc(CN3CCCC3)c2)cc1`, over 50.1 µM.
In turn, `Cc1ccc(C)c(CC(=O)NC2(C#N)CCOCC2)c1` had an IC50 of over 30.2 µM.
To `CCn1ccnc1CNCc1ccc(C)cc1OC(C)(C)C` belongs over 30.2 µM; to `CCN1C[C@H]2[C@@H](C1)N(S(=O)(=O)c1cccnc1)CC[C@H]2OC`, over 30.2 µM; to `Cc1cccc(NC(=O)NC2CCC3(C2)OCCO3)c1Cl` (centres undefined), over 30.2 µM.
`CN(Cc1nnc(C2CC2)n1C)C1CCN(Cc2ccncc2)C1` (centres undefined) had an IC50 of over 30.2 µM.
The result for `Cc1nn(C)c(Cl)c1C1CCCN1CC(=O)Nc1cccnc1` (centres undefined) reads over 30.2 µM; that for `Cc1csc(CN2CCC[C@]3(C[C@H](Oc4ccccn4)CO3)C2)n1`, over 30.2 µM; that for `CC(C)COCC(NC(=O)c1cnccn1)c1ccco1` (centres undefined), over 30.2 µM.
The result for `CC1COCCN1C(=O)Cc1cc(Cl)c2c(c1)OCCO2` (centres undefined) reads over 30.2 µM; that for `O=C1c2c(O)cc(O)cc2O[C@@H](c2ccc(O)cc2)[C@@H]1O`, over 30.2 µM.
`CCn1nc(C)c(-c2cncn2Cc2ccccc2CN(C)C)c1C` showed an IC50 of over 30.2 µM.
In the case of `CN1CCC(c2cccc(C(=O)N(C)C)n2)CC1`, the IC50 is over 30.2 µM.
`Cc1nn(CCO)c(C)c1CNCc1cccnc1N(C)C` gave a half-inhibitory concentration (IC50) of over 30.2 µM.
`CNc1cc(C)nc(C2CCN(CCO)CC2)n1` had an IC50 of over 30.2 µM.
To `O=C(C1CCOC1)N1Cc2ccccc2OC2(CCOCC2)C1` (centres undefined) belongs over 30.2 µM; to `Cc1nc(Nc2nnc(C)s2)cc(C2CCCN2C)n1` (centres undefined), over 30.2 µM.
The result for `Cc1nn(C)c(C)c1C1CCCN1C(=O)c1cnc2onc(C)c2c1` (centres undefined) reads over 30.2 µM; that for `CN(C)C(=O)c1ccc(C(C(=O)O)N(C)Cc2ccccc2Cl)cc1` (centres undefined), over 30.2 µM.
To `COCCNC(=O)[C@H]1C[C@@H]2CCN(c3ccccc3)C[C@H]2O1` belongs over 30.2 µM.
Take `CC(=O)Nc1nc(C(=O)N2CCCC2c2noc(C3CC3)n2)cs1` (centres undefined): the IC50 was over 30.2 µM.
Consider `O=c1oc2ccccc2n1CCCN1CCCC1c1ccc(O)cc1` (centres undefined), for which the IC50 is over 30.2 µM.
The result for `Cc1noc(C)c1CN1CCn2cc(CNc3ccccn3)nc2C1` reads over 30.2 µM.
To `Cc1c(C(=O)N2CCN(c3ccccn3)CC2)n(C)c2ccc(Cl)cc12` belongs over 30.2 µM; to `CC(CO)(NC(=O)NCc1ccc(Br)s1)C1CC1` (centres undefined), over 30.2 µM; to `O=C(CN1CCCC(c2ccn[nH]2)C1)Nc1nncs1` (centres undefined), over 30.2 µM.
The result for `Cc1cc(C2CCCN(CCNS(=O)(=O)c3ccccc3)C2)n[nH]1` (centres undefined) reads over 30.2 µM.
Regarding `Cc1nc(CN2CCCC2Cn2cncn2)nc2ccccc12` (centres undefined), the IC50 is over 30.2 µM.
Consider `Cc1cnc(C)c(-c2cccc(-c3ccn(CCN4CCCC4)n3)c2)n1`, for which the IC50 was over 30.2 µM.
The result for `CCn1cc(CN(C)Cc2cnn(-c3ccc(F)cc3)c2)cn1` reads over 30.2 µM; that for `COc1c(C2CCCN2CC(=O)Nc2nccs2)c(C)nn1C` (centres undefined), over 30.2 µM; that for `CCc1ncc(C(=O)NCC2CCN(Cc3ccncc3)CC2)cn1`, over 30.2 µM.
To `O=C1O[C@@H]2CN(c3ccc(Cl)cn3)C[C@@H]2N1CCc1ccc(F)cc1` belongs over 30.2 µM.
The result for `NC(Cc1nc(-c2ccccc2)no1)c1ccccc1` (centres undefined) reads over 30.2 µM; that for `CC1CCN(c2ccc(C(=O)N3CCCC3c3ccc[nH]3)cn2)CC1` (centres undefined), over 30.2 µM.
Molecule `O=C(NC[C@H]1OC[C@@H](NCc2ccc(F)cc2)[C@@H]1O)N1CCOCC1` gave an IC50 of over 30.2 µM.
To `Cn1cnc(S(=O)(=O)NCCN2CCCCCC2)c1Cl` belongs over 30.2 µM; to `COc1ccccc1CNC(=O)CS(=O)(=O)Cc1ccccc1`, over 30.2 µM.
In the case of `Cc1nnc(CN(Cc2ccc3c(c2)OCO3)C2CCCCC2)o1`, the IC50 is over 30.2 µM.
For the molecule `CC(O)c1cn(Cc2ccc(Cl)cc2)nn1` (centres undefined), the half-maximal inhibitory concentration (IC50) was over 30.2 µM.
The result for `CC(C(=O)Nc1ccc(N2CCCCC2)nc1)n1cncn1` (centres undefined) reads over 30.2 µM; that for `CN(C)C(=O)CN1CCC2(CCCN(Cc3cccn3C)C2)C1=O` (centres undefined), over 30.2 µM.
In turn, `COc1ccc(-c2nnsc2C(=O)N2CCC(C(N)=O)CC2)cc1` showed a half-maximal inhibitory concentration (IC50) of over 30.2 µM.
For `Cc1nnc2n1CC(CNCc1nc(-c3cccs3)no1)CC2` (centres undefined), the half-inhibitory concentration (IC50) is over 30.2 µM.
To `O=C(NCc1ccco1)[C@H]1C[C@@H]2CCN(c3nncs3)C[C@H]2O1` belongs over 30.2 µM; to `COCCC(=O)NCc1ccc(-c2ccccc2C(=O)O)nc1`, over 30.2 µM; to `CSCc1noc(CNC(=O)C2CCN(C(=O)C3CC3)CC2)n1`, over 30.2 µM.
The result for `FC(F)(F)c1cccnc1N1CCC(OC2CCOCC2)CC1` reads over 30.2 µM; that for `O=C(NCc1ccco1)[C@H]1C[C@@H]2CCN(c3ncccn3)C[C@H]2O1`, over 30.2 µM; that for `CN(C)c1nccc(C2CCCCN2Cc2cnn3cccnc23)n1` (centres undefined), over 30.2 µM.
`Cc1cc(C)c(C(=O)NC(c2nnc3n2CCNCC3)C(C)C)c(C)c1` (centres undefined) gave an IC50 of over 30.2 µM.
The result for `NC(=O)C1CCN(S(=O)(=O)c2cnn(-c3ccccc3)c2)C1` (centres undefined) reads over 30.2 µM.
To `CCc1nc(C)c(CN2CCCC(c3nn(C)c(=O)n3CC)C2)[nH]1` (centres undefined) belongs over 30.2 µM; to `O=C1CN(Cc2occc2C(=O)NCCc2ccc(F)cc2)CCN1`, over 30.2 µM; to `COCCN(Cc1cnn(C)c1)CC1CCN(C(C)C)CC1`, over 30.2 µM.
The result for `C[C@H]1CN2C[C@H](O)CC2CN1Cc1ccc2nccnc2c1` (some centres undefined) reads over 30.2 µM.
Consider `Cc1nc(C2CCCN(C(=O)c3ccc(Cl)cn3)C2)no1` (centres undefined), for which the IC50 was over 30.2 µM.
The result for `O=C(NCc1nc(NC2CCCC2)c2cc(Cl)ccc2n1)c1ccoc1` reads over 30.2 µM; that for `COc1cc(O)cc2c1C(=O)CC(c1ccc(O)cc1)O2` (centres undefined), over 30.2 µM.
For the molecule `O=C1CCC2(CCN(Cc3cscn3)CC2)CN1CC1CCCO1` (centres undefined), the IC50 is over 30.2 µM.
The result for `CC(C)CCc1n[nH]c(C(=O)O)c1Cl` reads over 50.1 µM; that for `Cc1nn(C)c(Cl)c1C1CCCN1Cc1nc(-c2ccco2)no1` (centres undefined), over 30.2 µM; that for `Cc1cnc2[nH]c(C(F)(F)F)c(CN3CCCC(CO)C3)c2c1` (centres undefined), over 30.2 µM.
To `COc1c(-c2ccc(O)cc2)oc2cc(O)cc(O)c2c1=O` [ISOKAEMPFERIDE] belongs over 30.2 µM; to `CC(C)N(CC(C)(C)O)C(=O)NC1CC1`, over 30.2 µM; to `CC(C)N1CCC(NC(=O)c2cn(-c3ccc(F)cc3)nn2)C1` (centres undefined), over 30.2 µM.
The result for `CS(=O)(=O)c1ccc(CN2C[C@H]3CC[C@@H]2CN(c2ncccn2)C3)cc1` reads over 30.2 µM.
`CCCN(Cc1ccccc1C)C(CC)CO` (centres undefined) showed an IC50 of over 30.2 µM.
With `CN1CCOC(CNCC(=O)NCCC2=CCCCC2)C1` (centres undefined), the IC50 was over 30.2 µM.
The result for `Cc1nccnc1-n1c(COCC(=O)O)nc2c(C)cccc21` reads over 50.1 µM.
In the case of `O=C(NCCc1ccncc1)[C@H]1C[C@@H]2CCN(c3nncs3)C[C@H]2O1`, the IC50 is over 30.2 µM.
To `Cc1cc(CN2CCOC(CNc3cccnn3)C2)no1` (centres undefined) belongs over 30.2 µM.
The result for `CCn1cc(CN2CCC(c3ncc(Cl)cc3S(C)(=O)=O)CC2)c(C)n1` reads over 30.2 µM; that for `Cc1nc(N2CCC(CN3CCCC3)CC2)c2cnn(C)c2n1`, over 30.2 µM.
`CCc1cnc(CN(C)C2CCN(CCCNS(C)(=O)=O)C2)o1` (centres undefined) had an IC50 of over 30.2 µM.
To `O=C(NCc1ccon1)c1c(F)cc(Br)cc1F` belongs over 30.2 µM; to `CCC(c1ccncc1)N(C)S(C)(=O)=O` (centres undefined), over 30.2 µM; to `COCCNC(=O)CCNc1cc(C)nc(-c2ccncc2)n1`, over 30.2 µM.
To `CN1CCN(c2ncc3c(=O)n(Cc4ccco4)ccc3n2)CC1` belongs over 30.2 µM.
The result for `CCc1ncc(C(=O)N2CC[C@@H]3CC[C@H](C2)N3C)cn1` reads over 30.2 µM; that for `CCc1nccn1-c1nccnc1C1CCN(C(=O)COC)CC1`, over 30.2 µM; that for `Cn1cc(N2C(=O)CC[C@@H]3[C@H]2CCN3Cc2nccs2)cn1`, over 30.2 µM.
The molecule `C[S+]([O-])c1nncn1CC(=O)c1ccc(Cl)c(Cl)c1` (centres undefined) had an IC50 of over 30.2 µM.
The result for `CN1CCCC(CNC(=O)N(C)Cc2ccc(Cl)c(F)c2)C1` (centres undefined) reads over 30.2 µM.
Consider `Cc1cc(C(=O)N[C@H](C)c2onc(-c3cccnc3)c2C(=O)O)c(C)o1`, for which the IC50 was over 30.2 µM.
Regarding `CCn1cc(Cl)c(C(=O)NCCCN(C)C)n1`, the IC50 is over 30.2 µM.
